As usually defined, the MIC is the lowest concentration found to suppress growth. For orientation: IC50 means the point on the concentration scale where inhibition reaches its midpoint.

For assay [1], the system named is Corynebacterium jeikeium. As to the kind of experiment: Growth inhibition in liquid medium, CFU plating (MIC99). It counts as cell-based. Conditions: Actinomycetes. The protocol: (§1) To further assess its specificity, effect of compounds 9 and 16 was also assessed in vitro growth in liquid medium on a whole range of bacteria (Corynebacterium jeikeium, Escherichia coli, Enterococcus faecalis, Klebsiella oxytoca, Nocardia asteroides, Staphylococcus aureus, Pseudomonas aeruginosa and Streptomyces). Compounds were solubilized in dimethylsulfoxide (DMSO) and 100 µl of the appropriate dilution were added to a 5 ml culture with predetermined bacterium inoculum. Quantification of the bacteria was carried out by plating on appropriate agar serial 5-fold dilutions in medium, and colony forming units (CFUs) were ascertained after 24 to 48 hours according to the strains. Table 5. Antibacterial activity of compounds 9 and 16 on other bacteria

Assay [2] concerns Nocardia asteroides. The description is as above. It counts as cell-based. Conditions: Actinomycetes. The protocol:
as §1

For assay [3], the system named is Pseudomonas aeruginosa. The assay is described as above. Conditions: Gram-negative. It counts as cell-based. The protocol: as §1
Assay [4] concerns Enterococcus faecalis. The description is as above. The assay is classed as cell-based. Conditions: Gram-positive. The procedure: as §1
The test system of assay [5] is Escherichia coli. The assay is described as above. The assay is classed as cell-based. Conditions: Gram-negative. The protocol: as §1
Assay [6] has as its system M. tuberculosis Beijing (GC1237). As to the kind of experiment: Growth inhibition in liquid culture, CFU plating (MIC99). The assay is classed as cell-based. Conditions: Mycobacterium tuberculosis.
The test system of assay [7] is M. tuberculosis H37Ra. The assay is described as above. Conditions: Mycobacterium tuberculosis. The assay is classed as cell-based.
In assay [8] the test system is Mycobacterium smegmatis mc^2155. As to the kind of experiment: Mycobacterial growth inhibition in liquid culture (MIC99). The assay is classed as cell-based. Conditions: Mycolicibacterium smegmatis, MC2155|MC^2155, 48 h, two-day's growth at 37°C, 99% decrease vs DMSO control.
Assay [9] relates to Mycobacterium tuberculosis H37Rv. As to the kind of experiment: Mycobacterial growth inhibition in liquid culture, CFU plating (MIC99). It counts as cell-based. Conditions: Mycobacterium tuberculosis, H37RV; for MIC99: 504 h; for MIC: summary statement, read-out: MIC measured on M. tuberculosis.
Assay [10] concerns M. bovis BCG (Pasteur). As to the kind of experiment: microbe, parasite or virus in culture. The assay is classed as cell-based. Conditions: Mycobacterium tuberculosis variant bovis BCG.
For assay [11], the system named is Macrophages. Nature of the assay: Cytotoxicity, MTT test. The assay is classed as cell-based. Conditions: cytotoxicity on macrophages. The protocol:
(§2) The cytotoxicity of compounds 9 and 16 was further assessed in various mammalian cell lines using the MTT test. RAW and A549 cell lines were maintained in RPMI 1640 medium without L-GLU supplemented with 10% Fetal calf serum (FCS), penicillin-streptomycin solution 1 % at 37 °C in air with 5 % CO2. VERO cell lines were maintained in D-MEM medium without L-GLU supplemented with 10% Fetal calf Serum (FCS), penicillin-streptomycin solution 1 % at 37 °C in air with 5 % CO2. Proliferating cells were seeded for 96-well microtitration plates at a density of 5. 10^5 cells/mL which were further incubated for 24 h at 37°C under 5 % CO2 in air before each assay. Various concentrations of solutions of 9 and 16 (10 µl/well) in 1.25 % dimethylsulfoxide (DMSO)) were added and then incubated for 24 hours under the above conditions. At the end of incubation, 20 µl of dimethylthiazolyl diphenyl tetrazolium bromide solution (MTT) (7.5 mg/ml) was then added into each well and further incubated for 4 h at 37°C to allow the formation of formazan. The crystals of formazan were then dissolved with 100 µl of an acidic solution (Sodium dodecyl sulfate (SDS) 10 %, HCl 10 mM). The optical density of each well was measured at 595 nm using a Multiwell plate reader. The values given are the average means of six replicates. The 50 % inhibition concentration was determined by curve fitting.

Assay [12] has as its system VERO cells. Nature of the assay: Cytotoxicity, MTT test. It counts as cell-based. Conditions: for IC50: cytotoxicity on VERO cells, MTT, 24 hours; for Selectivity Index: summary statement, cell type not specified. The protocol:
as §2
Background: Tetrazolium assays rely on reduction of a dye to a coloured formazan, in cell work by metabolically active cells.

Assay [13] has as its system Candida albicans. Nature of the assay: In vitro activity (MIC99) against Candida albicans. It counts as cell-based. The procedure:
The antifungal activity of compounds 5, 9, and 11-22 against Candida albicans was analyzed by the measure of the MIC99 concentration (see Table 1). Table 1. In Vitro Activity against Candida albicans of pyranodibenzofuran derivatives

Assay [14] relates to L1210 cells. Nature of the assay: Cytotoxicity, MTA (Microculture Tetrazolium Assay) test. The assay is classed as cell-based. Conditions: Mus musculus, cytotoxicity on L1210 cells, read-out: IC50. The procedure: The cytotoxicity of compounds 5, 9, and 10-21 was determined in L1210 cells using the MTA (Microculture Tetrazolium Assay) test.
In assay [15] the test system is murine bone marrow macrophages infected by M. tuberculosis H37Rv. Nature of the assay: Antibacterial activity on infected bone marrow macrophages (CFU count of lysates). The assay is classed as cell-based.
For assay [16], the system named is Mycobacterium tuberculosis H37Rv. The arrangement: species or system C57BL/6 and BalbC mice. Conditions: mouse, in vivo.
For assay [17], the system named is Staphylococcus aureus. Nature of the assay: Growth inhibition in liquid medium, CFU plating (MIC99). Conditions: Gram-positive. It counts as cell-based. The procedure: as §1
Assay [18] has as its system Streptomyces Subspec. Described as above. The assay is classed as cell-based. Conditions: Actinomycetes. The procedure:
as §1

Assay [19] has as its system Klebsiella oxytoca. The description is as above. The assay is classed as cell-based. Conditions: Gram-negative. The protocol:
as §1

Assay [20] concerns M. microti (MYC-942272). As to the kind of experiment: Growth inhibition in liquid culture, CFU plating (MIC99). The assay is classed as cell-based.
The subject of assay [21] is Pneumococcus pneumoniae. As to the kind of experiment: Growth inhibition in liquid medium, CFU plating (MIC99). It counts as cell-based. Conditions: Gram-positive.
The mark [22] stands for this setting: read-out: MIC99 on M. smegmatis, mc2155.
[23] abbreviates: mc2155, read-out: MIC99 on M. smegmatis.
Where [24] appears, read: H37Rv, three weeks growth in 7H9, CFU on 7H11, NI = no inhibition at 1 mg/mL, read-out: MIC99 on M. tuberculosis.
The mark [25] stands for this setting: M. tuberculosis H37Rv, three week growth in 7H9/OADC.
[26] abbreviates: Macrophage, 24 h, read-out: IC50.
Setting [27] is: Chlorocebus sabaeus, Vero, 24 h, read-out: IC50.
Setting [28] is: M. tuberculosis H37Rv, three week growth in 7H9/OADC, read-out: MIC99.

Structures are written as SMILES. Converted amounts (≈) assume the structure as drawn. Like-named read-outs stand apart in the source and are kept apart here. Bounds are passed on as bounds.

On to `CC1(C)CCc2c(ccc3oc4ccccc4c23)O1` [Compound 16, 1,2-dihydro-3,3-dimethyl-3H-benzofuro[3,2-f][1]benzopyran], for which the MIC99 is greater than 150 µg/mL in assay [1]; 15 µg/mL (≈ 59.4 µM) in assay [2]; greater than 500 µg/mL in assay [3]; greater than 500 µg/mL in assay [4]; greater than 500 µg/mL in assay [5]; less than 5 µg/mL in [6]. Besides, the MIC99 in assay [7] is 10 µg/mL (≈ 39.6 µM); in assay [8] (setting [22]) it was 5 µg/mL (≈ 19.8 µM); in [8] (setting [23]), 1 µg/mL (≈ 3.96 µM); in assay [9] (setting [24]) it was 5 µg/mL (≈ 19.8 µM); in [9] (setting [25]) it was less than 5 µg/mL; in [10], 10 µg/mL (≈ 39.6 µM). In addition, in assay [9], the MIC was less than 6.25 µg/mL. For the same compound, the IC50 in [11] (setting [26]) was greater than 50 µg/mL; in assay [11] (24 hours), greater than 100 µg/mL; in assay [12] (setting [27]) it was greater than 50 µg/mL; in [12] it was 100 µg/mL (≈ 396 µM). For the same compound, the “Selectivity Index” value in assay [12] is listed as “above 10”.

On to `CC1(C)C=Cc2c(ccc3oc4ccccc4c23)O1` [Compound 9, 3,3-dimethyl-3H-benzofuro[3,2-f][1]benzopyran], for which the MIC99 was greater than 600 µg/mL in assay [13] (Candida albicans, > 99 % inhibition of growth, read-out: MIC99 C. albicans); greater than 600 µg/mL in [13] (Fungus, Candida albicans (table of other bacteria), read-out: MIC99); greater than 150 µg/mL in assay [1]; 12.8 µg/mL (≈ 51.1 µM) in [2]; greater than 500 µg/mL in assay [3]; greater than 500 µg/mL in [4]. Further, the MIC99 in [17] is greater than 100 µg/mL; in assay [18], greater than 500 µg/mL; in [19], greater than 600 µg/mL; in assay [5], greater than 600 µg/mL; in assay [7] it was 10 µg/mL (≈ 40 µM); in [20], 1 µg/mL (≈ 4 µM). Besides, the MIC99 is 5 µg/mL (≈ 20 µM) in [8] (setting [23]); 5 µg/mL (≈ 20 µM) in [9] (setting [24]); less than 5 µg/mL in assay [9] (setting [25]); greater than 500 µg/mL in [21]; 10 µg/mL (≈ 40 µM) in assay [10]. The IC50 in assay [14] is greater than 14 µg/mL; in [11] (setting [26]), greater than 50 µg/mL; in assay [11] (24 hours) it was 80 µg/mL (≈ 320 µM); in [12] (setting [27]), greater than 50 µg/mL; in [12], 80 µg/mL (≈ 320 µM). Further, the CFU in assay [15] (5 µg/mL, 24 hours treatment, untreated control 4000 ± 1414) is on record as 3000 ± 816; in [15] (5 µg/mL, 48 hours treatment, untreated control 17500 ± 12583), 2875 ± 250; in assay [15] (10 µg/mL, 24 hours treatment, untreated control 4000 ± 1414), 1500 ± 577; in [15] (10 µg/mL, 48 hours treatment, untreated control 17500 ± 12583), 10000 ± 7360; in assay [15] (50 µg/mL, 24 hours treatment, untreated control 4000 ± 1414), 1750 ± 1500; in [15] (50 µg/mL, 48 hours treatment, untreated control 17500 ± 12583), 3800 ± 497. For the same compound, the “reduction of bacterial load” value in assay [15] (10µg/mL at 24 hours) is given as 60%. For the same compound, the “bacteria detected at 30 days post infection (bacterial load, CFU)” value in [16] is “no bacteria was detected in 2 out of 3 mice”. Besides, the MIC in assay [9] was less than 6.25 µg/mL. In addition, the “Selectivity Index” value in assay [12] is listed as “above 10”.

With `NNC(=O)c1ccncc1` [INH, isoniazid, reference compound], the IC50 in [14] was determined as 14 µg/mL (≈ 102 µM). The MIC99 was found to be 0.1 µg/mL (≈ 0.729 µM) in assay [6] (read-out: MIC99); 1 µg/mL (≈ 7.29 µM) in assay [7]; 0.1 µg/mL (≈ 0.729 µM) in assay [20]; 13 µg/mL (≈ 94.8 µM) in assay [8] (setting [23]); 0.1 µg/mL (≈ 0.729 µM) in assay [9] (setting [24]); 0.1 µg/mL (≈ 0.729 µM) in assay [9] (setting [28]). The compound also had an MIC99 in assay [10] of 1 µg/mL (≈ 7.29 µM).

As for `C#CC(C)(C)Oc1ccc2oc3ccccc3c2c1` [Compound 5, 2-(1,1-dimethyl-propargyloxy)-dibenzofuran], the MIC99 in [6] (read-out: MIC99) was greater than 500 µg/mL; in [7], greater than 500 µg/mL; in assay [20], greater than 500 µg/mL; in assay [8] (setting [22]), 12 µg/mL (≈ 47.9 µM); in assay [9] (setting [24]) it was greater than 1000 µg/mL; in [9] (setting [28]), greater than 500 µg/mL. The MIC99 in assay [10] was greater than 500 µg/mL.

Values taken from patent publication EP1770089A1, “Pyranodibenzofuran derivatives with antifungal and antibacterial activity” (priority 2005, dated 2007).
